Measurements from patent US20200392116A1, “SUBSTITUTED HETEROCYCLES AS c-MYC TARGETING AGENTS” (NORTHWESTERN UNIVERSITY, priority 2019, published 2020).

experiment: Potency code of Table 2 (assay not stated)

SMILES	Potency code
CCc1ccc(Oc2c[nH]nc2-c2ccc(OCc3ccncc3)cc2O)cc1 [NUCC-0176254]	+ (>40 +)
Cn1nc(C(F)(F)F)cc1-c1ccc(OCCCN)c(-c2ccc(Cl)c(C(F)(F)F)c2)c1O [NUCC-0201642]	+ (>40 +)
Oc1cc(OCc2ccc(Cl)cc2)ccc1-c1n[nH]cc1Oc1ccccc1Cl [NUCC-0196343]	+ (>40 +)
Oc1cc(OCc2ccc(Cl)cc2)ccc1-c1n[nH]cc1-c1cc(C(F)(F)F)cc(C(F)(F)F)c1 [NUCC-0198318]	++ (30-40 ++)
Oc1cc(Nc2ccc(F)c(F)c2)ccc1-c1cc(C(F)(F)F)[nH]n1 [NUCC-0200559]	++ (30-40 ++)
Oc1cc(OCc2ccc(Cl)cc2)ccc1-c1cc(C(F)(F)F)[nH]n1 [NUCC-0196313]	++++ (<10 ++++)
Cc1[nH]nc(-c2ccc(OCc3cnn(C)c3)cc2O)c1Oc1ccccc1 [NUCC-0176249]	+ (>40 +)
COc1ccc(-c2c(-c3ccc(OCc4ccc(Cl)cc4)cc3O)nn(C)c2C(F)(F)F)cc1OC [NUCC-0196311]	+ (>40 +)
Cn1nc(-c2ccc(OCc3ccc([N+](=O)[O-])cc3)c(-c3cncc(C(F)(F)F)c3)c2O)cc1C(F)(F)F [NUCC-0201654]	+ (>40 +)
Cc1ccc(C)c(Oc2cn(C)nc2-c2ccc(OCc3ccc(Cl)cc3)cc2O)c1 [NUCC-0196285]	+ (>40 +)
Oc1c(-c2cc(C(F)(F)F)[nH]n2)ccc(OCc2ccc(Cl)cc2)c1-c1ccc(F)cc1 [NUCC-0196347]	+ (>40 +)
CCc1ccc(Oc2c[nH]nc2-c2ccc(OCc3ccc(F)cc3)cc2O)cc1 [NUCC-0176257]	+ (>40 +)
Cn1nc(-c2ccc(OCc3cccnc3)c(-c3cc(C(F)(F)F)cc(C(F)(F)F)c3)c2O)cc1C(F)(F)F [NUCC-0201023]	+ (>40 +)
Cn1nc(-c2ccc(OCc3ccc(Cl)cc3)c(Br)c2O)cc1C(F)(F)F [NUCC-0198408]	+ (>40 +)
COc1ccc(-c2c(-c3ccc(OCc4ccc(Cl)cc4)cc3O)noc2C(F)(F)F)cc1OC [NUCC-0196306]	+ (>40 +)
Cc1ccc(-c2c(C(F)(F)F)n[nH]c2-c2cc(OCc3ccc(Cl)cc3)ccc2O)cc1 [NUCC-0200572]	+ (>40 +)
c1ccc(COc2ccccc2-c2nn[nH]c2-c2ccccc2)cc1 [NUCC-0200722]	+ (>40 +)
COc1cccc(COc2ccc(-c3n[nH]cc3Oc3cc(C)ccc3C)c(O)c2)c1 [NUCC-0196288]	+ (>40 +)
CCOc1ncc(C(F)(F)F)cc1-c1c(OCc2ccc(Cl)cc2)ccc(-c2cc(C(F)(F)F)n[nH]2)c1O [NUCC-0201039]	+++ (10-30 +++)
CCCCOc1ccc(-c2cc(C(F)(F)F)[nH]n2)c(O)c1-c1cncc(C(F)(F)F)c1 [NUCC-0201637]	+ (>40 +)
N#Cc1cccc(-c2c(C(F)(F)F)n[nH]c2-c2cc(OCc3ccc(Cl)cc3)ccc2O)c1 [NUCC-0200571]	+ (>40 +)
Cc1ccc(C)c(Oc2c[nH]nc2-c2ccc(OCc3cccc(Cl)c3)cc2O)c1 [NUCC-0196286]	+ (>40 +)
Cn1nc(-c2ccc(OCc3ccc([N+](=O)[O-])cc3)c(-c3cc(C(F)(F)F)cc(C(F)(F)F)c3)c2O)cc1C(F)(F)F [NUCC-0201649]	+ (>40 +)
Cn1nc(C(F)(F)F)cc1-c1ccc(OCc2ccc(Cl)cc2)c(-c2ccccc2OC(F)(F)F)c1O [NUCC-0198410]	+ (>40 +)
Cn1nc(-c2ccc(OCc3ccc(Cl)cc3)cc2O)cc1C(F)(F)F [NUCC-0196314.2]	+ (>40 +)
Cn1cc(-c2ccc(OCc3ccc(Cl)cc3)cc2CO)c(C(F)(F)F)n1 [NUCC-0200813]	+ (>40 +)

SMILES	Potency code
CN/N=C(/C)c1cccc(-c2c(OCc3ccc(Cl)cc3)ccc(-c3cc(C(F)(F)F)[nH]n3)c2O)c1 [NUCC-0198403]	+ (>40 +)
CCc1nn(C)c(-c2ccc(OCc3ccc(Cl)cc3)cc2O)c1-c1cccc(OC)c1 [NUCC-0198316]	+ (>40 +)
Cn1nc(C(F)(F)F)cc1-c1ccc(OCc2ccc(Cl)cc2)c(-c2cccc(C(F)(F)F)c2)c1O [NUCC-0200974]	+ (>40 +)
Cn1nc(-c2ccc(OCc3ccc(Cl)cc3)c(-c3cc(C(F)(F)F)cc(C(F)(F)F)c3)c2O)cc1C(F)(F)F [NUCC-0196360]	+ (>40 +)
Cn1nc(C(F)(F)F)cc1-c1ccc(O)cn1 [NUCC-0200687]	+ (>40 +)
Oc1cc(Nc2ccc(-n3ccnc3)cc2)ccc1-c1cc(C(F)(F)F)[nH]n1 [NUCC-0200569]	+ (>40 +)
Cn1nc(C(F)(F)F)cc1-c1ccc(OCc2ccc(Cl)cc2)c(-c2cccc(C(N)=O)c2)c1O [NUCC-0198402]	+ (>40 +)
Oc1c(-c2cc(C(F)(F)F)[nH]n2)ccc(OCc2ccc(Cl)cc2)c1-c1cc(C(F)(F)F)cc(C(F)(F)F)c1 [NUCC-0196362]	++ (30-40 ++)
CCc1c(-c2cccc(OC)c2)c(-c2ccc(OCc3ccc(Cl)cc3)cc2O)nn1C [NUCC-0198317]	+ (>40 +)
N#Cc1cccc(-c2c(OCc3ccc(Cl)cc3)ccc(-c3cc(C(N)=O)[nH]n3)c2O)c1 [NUCC-0200557]	+ (>40 +)
CN/N=C(/C)c1ccc(-c2c(OCc3ccc(Cl)cc3)ccc(-c3cc(C(F)(F)F)[nH]n3)c2O)cc1 [NUCC-0198395]	+ (>40 +)
Cn1cc(-c2c[nH]nc2-c2ccc(OCc3ccc(Cl)cc3)cc2O)cn1 [NUCC-0198361]	+ (>40 +)
CN1CCN(c2ccc(-c3cc(C(F)(F)F)n(C)n3)c(O)c2)CC1 [NUCC-0200568]	+ (>40 +)
CCc1ccc(Oc2c(-c3ccc(O)cc3O)n[nH]c2C(F)(F)F)cc1 [NUCC-0198406]	++++ (<10 ++++)
CCc1ccc(Oc2c[nH]nc2-c2ccc(OCc3ccc(C(F)(F)F)cc3)cc2O)cc1 [NUCC-0176244]	+ (>40 +)
Cn1cc(-c2ccc(F)cc2)c(-c2ccc(OCc3ccc(Cl)cc3)cc2O)n1 [NUCC-0196349]	+ (>40 +)
Cc1cc(C)cc(-c2cn(C)nc2-c2ccc(OCc3ccc(Cl)cc3)cc2O)c1 [NUCC-0198353]	+ (>40 +)
COc1ccc(-c2cc(C(F)(F)F)n(C)n2)c(O)c1-c1cc(C(F)(F)F)cc(C(F)(F)F)c1 [NUCC-0201221]	+ (>40 +)
COc1cccc(COc2ccc(-c3nn(C)cc3Oc3cc(C)ccc3C)c(O)c2)c1 [NUCC-0196289]	+ (>40 +)
Oc1cc(OCc2ccc(Cl)cc2)ccc1-c1n[nH]cc1-c1ccoc1 [NUCC-0198322]	++ (30-40 ++)
Cn1cc(Oc2ccccc2Cl)c(-c2ccc(OCc3ccc(Cl)cc3)cc2O)n1 [NUCC-0196305]	++++ (<10 ++++)
COc1ccc(COc2ccc(-c3cc(C(F)(F)F)n[nH]3)c(O)c2-c2cc(C(F)(F)F)cc(C(F)(F)F)c2)cc1 [NUCC-0201041]	+ (>40 +)
CCc1ccc(Oc2c(-c3ccccc3O)n[nH]c2C(F)(F)F)cc1 [NUCC-0200683]	+++ (10-30 +++)
Oc1c(-c2cc(C(F)(F)F)n[nH]2)ccc(OCc2ccc(F)cc2)c1-c1cc(C(F)(F)F)cc(C(F)(F)F)c1 [NUCC-0201033]	+ (>40 +)
Cn1nc(-c2ccc(OCc3ccc(Cl)cc3)cc2O)c(Oc2cccc(F)c2)c1C(F)(F)F [NUCC-0196302]	+ (>40 +)
